This is an account of results in US12358919B2, “Antibacterial compounds” (Universita' degli Studi di Siena, priority 2019, dated 2025).

Series [1] in a line: in vitro. The series is classed as cell-based. Particulars: human. As to the method:
Growth inhibition or killing of bacteria was investigated using conventional methods widely described in the scientific literature. Parameters such as the Minimum Inhibitory Concentration (MIC) were determined as described in Clinical Laboratory Standard Institute (CLSI) document M07 “Methods for Dilution Antimicrobial Susceptibility Tests for Bacteria That Grow Aerobically, 11th Edition” (2018). Synergistic activity of the compounds described in the present specification were determined by measuring the variation of the MIC's compound in the absence and presence of a sub-inhibitory concentration of a suitable antibacterial agent, such as polymyxin E1. Furthermore, the Fractional Inhibitory Concentrations (FICs) were measured using a chequerboard analysis to determine the average FIC index (FICI), whose value is known to characterize the interaction between two compounds and/or drugs (≤0.5, synergistic interaction; >0.5 and <2, no interaction, additive effect; ≥2, antagonistic interaction). Furthermore, the selectivity of the compounds was investigated by measuring their cytotoxic effect on mammalian cell lines (e.g. HeLa cells).
The selectivity and potential cytotoxic effect of antibacterial compounds is a key aspect of such drugs. […]

Series [2] concerns Enterococcus faecalis ATCC 29212. The series is described as follows: MIC, broth microdilution (direct antibacterial activity). Type of series: cell-based. Particulars: ATCC29212, E. faecalis ATCC 29212, compound alone, 18-24 h, read-out: MIC. The essentials: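 CLSI M07 broth microdilution in Mueller-Hinton broth, inoculum 5×10^5 CFU/mL, compound at 512 to 0.25 mg/L. Plates incubated 18-24 hours at 35±2 °C before MIC reading.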
On the technique in general: Dilution methods test growth across graded concentrations, often in twofold steps.

Usually IC50 stands for the concentration that inhibits the measured activity by half. One may read the MIC as the smallest concentration in the dilution series that meets the test's criterion for growth inhibition. With `CCCCn1c(=O)c(C(=O)NC23CC4CC(CC(C4)C2)C3)c(O)c2nn(C)cc21` [Ib, N-(Adamantan-1-yl)-4-(1-butyl)-4,5-dihydro-7-hydroxy-2-methyl-5-oxo-2H-pyrazolo[4,3-b]pyridin-6-carboxamide], the IC50 at 24 h in series [1] is greater than 256 µg/mL. Also, the MIC in series [2] is 64 µg/mL.
